Like-named read-outs stand apart in the source and are kept apart here.
Key:
[1] = test system: chorioallantoic membrane (CAM); format: in vivo
Protocol: (§1) To investigate the cytotoxicity of calcium peroxide, hyaluronic acid, and a combination thereof on cells, the substances were given to human primary fibroblasts, osteoblasts, and human umbilical vein endothelial cells (HUVEC) in vitro and compared to untreated cells and a dead control. For this purpose, cytotoxicity tests were performed according to ISO 10993-5 by measuring the cell viability quantitatively and […]. Additionally, biocompatibility tests were performed in the chorioallantoic membrane assay (CAM assay) in fertilized hen's eggs. All tests were repeated at least three times independently. In all tests 30 mg/mL hyaluronic acid and 0.256 mg/mL CaO2 were used. According to ISO 10993-5, cytotoxicity is defined by more than 30% reduction of the viable cell number by the substance.
Fertilized white Leghorn chicken eggs (LSL Rhein-Main GmbH, Dieburg, Germany) were incubated at 38° C. with constant humidity of 55 rH in an incubator (Type 3000 digital and fully automatic, Siepmann GmbH, Herdecke, Germany). For the first three days, eggs were placed horizontally on one side to ensure that the CAM would detach from the upwards pointing eggshell. On the embryonic development day (EDD) 3, eggs were prepared by removing 5-6 mL of the albumen in order to enlarge the space between eggshell and CAM. A small window of 3×2 cm was cut into the upwards pointing part of the eggshell. The window was covered with Parafilm® (Sigma-Aldrich, St. Louis, MO, USA) to prevent evaporation. On EDD-8, Gelaspon Strips (Bausch & Lomb Inc.; New York, USA) were cut in slices of 1×0.5×2 mm. 20 μl of each substance (512 mg/L CaO2, 10 mg/mL sodium hyaluronate, combination thereof) were added to the sponge. 20 μl of water was used as control. The further assessment of potential tissue adverse events was performed blinded. After 3 h, on EDD-10, and EDD-12, pictures were taken with a digital intravital fluorescence microscope (Olympus BXFM, Olympus Deutschland GmbH, Hamburg, Germany) at a 100-fold magnification using the cellSens Dimension software package.

[2] = test system: planktonic Porphyromonas gingivalis DSM 20709; assay: Planktonic bacterial growth and metabolic activity of P. gingivalis; format: cell-based; settings: for relative metabolic activity compared to the control: FIG. 5 lower right; for optical density at 600 nm (growth) compared to the control: FIG. 5 top right
Protocol: (§2) According to FIG. 5, different concentrations of calcium peroxide were applied to mature biofilms in combination with hyaluronic acid. Calcium peroxide was added to planktonic bacterial strains S. oralis and P. gingivalis in concentrations ranging from 0 mg/L (control) to 500 mg/L with hyaluronic acid being present in a concentration of 11.550 mg/L. Shown in each case are the optical density at 600 nm, a parameter for the growth of a bacterial culture, and the relative metabolic activity. […] The autoclaved calcium peroxide (CaO2) (Sigma Aldrich, St. Louis, MO, US), ZnO2 and/or MgO2 was dissolved in sterile filtered, deionized, and autoclaved water. By serial dilutions with water (for planktonic experiments) or BHI/VitK (for biofilm experiments) the solutions were adjusted to concentration of 3.9-500 mg/l CaO2 for bacterial experiments. All solutions were freshly prepared for each experiment. Streptococcus oralis ATCC 9811 was obtained from the American Type Culture Collection (ATCC) and Porphyromonas gingivalis DSM 20709 derived from the German Collection of Microorganisms and Cell Cultures (DSMZ). The strains were grown under anaerobic conditions (80% N2, 10% H2, 10% CO2) at 37° C. for 24 h in 50 mL screw cap tube (Sarstedt, Nümbrecht, Germany) with Brain Heart Infusion Medium (BHI; Oxoid, Wesel, Germany) containing 10 μg/mL vitamin K (Roth, Karlsruhe, Germany; BHI/VitK) to obtain 24-hour-old precultures for further processing. In order to determine the influence of CaO2 on planktonic S. oralis and P. gingivalis, the 24-hour-old precultures were pelleted by centrifugation at 4,000 g for 15 min at 4° C., the supernatant was discarded and the bacterial pellets were resuspended in fresh double concentrated BHI/VitK medium (2×BH/VitK). The optical density was measured at 600 nm (OD600; BioPhotometer, Eppendorf, Hamburg, Germany), adjusted to 0.2 and dilute 1:10 with 2×BHI/VitK to 0.02. The freshly prepared CaO2 solution was mixed equally with the bacterial cultures (OD600=0.02) to a final OD600=0.01 and following final concentrations for CaO2: As positive controls, bacterial cultures (OD600=0.02) were mixed 1:2 with sterile filtered, deionized and autoclaved water (growth controls). As negative controls, 2×BHI/VitK was mixed equally with sterile filtered, deionized and autoclaved water (medium control) and the CaO2 solution was mixed 1:2 with 2×BHI/VitK (CaO2 solution control). Finally, 150 μL of each suspension was transferred into each well of a 96-well plate and cultivated for 24 h at 37° C. rotating (180 rpm) under anaerobic conditions (Anaerobic Jar and AnaeroGen; Oxoid, Wesel, Germany). All experiments were carried out in three biological and two technical replicates. To evaluate the effect of CaO2 on the growth of planktonic S. oralis and P. gingivalis cultures, the 24-h-old bacterial cultures were mixed and the optical density (OD600) was measured with a plate reader (Tecan, Mennedorf, Switzerland). Metabolic activity was measured using the BacTiter-Glo™ Microbial Viability Assay (Promega, Mannheim, Germany). 50 μL BacTiter-Glo™ reagent and 50 μL of the well-mixed bacterial cultures were added to opaque 96-well plates. After 5 min of incubation at room temperature under light protection, the samples were mixed again and the amount of adenosine triphosphate (ATP) was determined by measuring the luminescence using the plate reader. All results were normalized to the medium or CaO2 solution controls.

[3] = test system: human primary fibroblasts obtained from human oral mucosa; format: cell-based; settings: 0.256 mg/mL calcium peroxide as single substance; cytotoxicity = more than 30% reduction (ISO 10993-5); FIG. 1
Protocol: as §1
Fibroblasts were obtained from human oral mucosa. Tissue samples were cut into small pieces of approximately 2×2 mm with a sterile disposable scalpel. […]
Cells were seeded into a 24-well-plate and they were given time to adhere overnight. […] Fluorescence was measured on a Fluorescence Microplate Reader (Fluoroskan Ascent Microplate reader, ThermoFisher Scientific, Waltham, MA, USA). Results were given as relative fluorescence using a 538 nm excitation filter and a 600 nm emission filter, normalized to untreated control.

[4] = test system: planktonic Streptococcus oralis ATCC 9811; assay: Planktonic bacterial growth and metabolic activity of S. oralis; format: cell-based; settings: for optical density at 600 nm (growth) compared to the control: 24 h anaerobic, FIG. 5 upper left
Protocol: as §2, with “As negative controls, 2×BHI/VitK was mixed equally with sterile filtered, deionized and autoclaved water (medium control) and the CaO2 solution was mixed 1:2 with 2×BHI/VitK (CaO2 solution control). Finally, 150 μL of each suspension was transferred into each well of a 96-well plate and cultivated for 24 h at 37° C. rotating (180 rpm) under anaerobic conditions (Anaerobic Jar and AnaeroGen; Oxoid, Wesel, Germany). All experiments were carried out in three biological and two technical replicates.” left out, “50 μL BacTiter-Glo™ reagent and 50 μL of the well-mixed bacterial cultures were added to opaque 96-well plates.” left out, “All results were normalized to the medium or CaO2 solution controls.” left out

[5] = test system: human primary osteoblasts; format: cell-based; settings: 30 mg/mL hyaluronic acid, 0.256 mg/mL CaO2; FIG. 2
Protocol: as §1
Primary human osteoblasts were isolated according to the following protocol. Human bone specimens were obtained during hip or knee joint replacement surgeries. […]
Cells were seeded into a 24-well-plate and they were given time to adhere overnight. […] Fluorescence was measured on a Fluorescence Microplate Reader (Fluoroskan Ascent Microplate reader, ThermoFisher Scientific, Waltham, MA, USA). […]

Compound	adverse tissue reactions on the CAM ([1]; in vivo)	cytotoxic effect on the CAM ([1]; in vivo)	relative metabolic activity compared to the control ([2]; calcium peroxide 125 mg/L)	optical density at 600 nm (growth) compared to the control ([2]; calcium peroxide 125 mg/L)	relative metabolic activity compared to the control ([2]; calcium peroxide 250 mg/L)	optical density at 600 nm (growth) compared to the control ([2]; calcium peroxide 250 mg/L)	relative metabolic activity compared to the control ([2]; calcium peroxide 500 mg/L)	optical density at 600 nm (growth) compared to the control ([2]; calcium peroxide 500 mg/L)	reduction in cell viability [3]	growth inhibition of S. oralis ([4]; calcium peroxide 125 mg/L)	optical density at 600 nm (growth) compared to the control ([4]; calcium peroxide 250 mg/L)	optical density at 600 nm (growth) compared to the control ([4]; calcium peroxide 500 mg/L)	relative metabolic activity compared to the control ([4]; calcium peroxide up to 500 mg/L, FIG. 5 lower left)	viability after treatment in comparison to untreated osteoblasts (=100% cell viability) [5]	adverse tissue reactions on the CAM ([1]; FIG. 4)	angiogenesis (area of the sponge covered by blood vessels) compared to untreated CAM tissue ([1]; FIG. 4A)	cytotoxic effect on the CAM ([1]; substance applied on sponge, FIGS. 4A and 4B)
hyaluronic acid	no adverse tissue reactions	none of the tested substances had a cytotoxic effect															
[Ca+2].[O-][O-] [calcium peroxide]			significantly decreased	significantly decreased	significantly decreased	significantly decreased	significantly decreased	significantly decreased	more than 30%	only very slightly inhibited	decreased significantly	decreased significantly	unchanged	hardly showed a reduction	no adverse tissue reactions	not significantly different	none of the tested substances had a cytotoxic effect

— US20250152623A1, “Compositions and kits for use in wound healing, tissue regeneration and/or bone regeneration” (priority 2022, published 2025)
